Where only a bound is given, the exact number is not on record here.

Ki data for 25 compounds are collected here from US8410112B2, “Compounds useful as inhibitors of ATR kinase” (Vertex Pharmaceuticals Incorporated, priority 2008, dated 2013).

The target of the experiment is T1, full-length ATR (Homo sapiens, UniProt Q13535).
T1 construct: in the presence of 5 nM full-length ATR
T1 sequence (Q13535 whole entry): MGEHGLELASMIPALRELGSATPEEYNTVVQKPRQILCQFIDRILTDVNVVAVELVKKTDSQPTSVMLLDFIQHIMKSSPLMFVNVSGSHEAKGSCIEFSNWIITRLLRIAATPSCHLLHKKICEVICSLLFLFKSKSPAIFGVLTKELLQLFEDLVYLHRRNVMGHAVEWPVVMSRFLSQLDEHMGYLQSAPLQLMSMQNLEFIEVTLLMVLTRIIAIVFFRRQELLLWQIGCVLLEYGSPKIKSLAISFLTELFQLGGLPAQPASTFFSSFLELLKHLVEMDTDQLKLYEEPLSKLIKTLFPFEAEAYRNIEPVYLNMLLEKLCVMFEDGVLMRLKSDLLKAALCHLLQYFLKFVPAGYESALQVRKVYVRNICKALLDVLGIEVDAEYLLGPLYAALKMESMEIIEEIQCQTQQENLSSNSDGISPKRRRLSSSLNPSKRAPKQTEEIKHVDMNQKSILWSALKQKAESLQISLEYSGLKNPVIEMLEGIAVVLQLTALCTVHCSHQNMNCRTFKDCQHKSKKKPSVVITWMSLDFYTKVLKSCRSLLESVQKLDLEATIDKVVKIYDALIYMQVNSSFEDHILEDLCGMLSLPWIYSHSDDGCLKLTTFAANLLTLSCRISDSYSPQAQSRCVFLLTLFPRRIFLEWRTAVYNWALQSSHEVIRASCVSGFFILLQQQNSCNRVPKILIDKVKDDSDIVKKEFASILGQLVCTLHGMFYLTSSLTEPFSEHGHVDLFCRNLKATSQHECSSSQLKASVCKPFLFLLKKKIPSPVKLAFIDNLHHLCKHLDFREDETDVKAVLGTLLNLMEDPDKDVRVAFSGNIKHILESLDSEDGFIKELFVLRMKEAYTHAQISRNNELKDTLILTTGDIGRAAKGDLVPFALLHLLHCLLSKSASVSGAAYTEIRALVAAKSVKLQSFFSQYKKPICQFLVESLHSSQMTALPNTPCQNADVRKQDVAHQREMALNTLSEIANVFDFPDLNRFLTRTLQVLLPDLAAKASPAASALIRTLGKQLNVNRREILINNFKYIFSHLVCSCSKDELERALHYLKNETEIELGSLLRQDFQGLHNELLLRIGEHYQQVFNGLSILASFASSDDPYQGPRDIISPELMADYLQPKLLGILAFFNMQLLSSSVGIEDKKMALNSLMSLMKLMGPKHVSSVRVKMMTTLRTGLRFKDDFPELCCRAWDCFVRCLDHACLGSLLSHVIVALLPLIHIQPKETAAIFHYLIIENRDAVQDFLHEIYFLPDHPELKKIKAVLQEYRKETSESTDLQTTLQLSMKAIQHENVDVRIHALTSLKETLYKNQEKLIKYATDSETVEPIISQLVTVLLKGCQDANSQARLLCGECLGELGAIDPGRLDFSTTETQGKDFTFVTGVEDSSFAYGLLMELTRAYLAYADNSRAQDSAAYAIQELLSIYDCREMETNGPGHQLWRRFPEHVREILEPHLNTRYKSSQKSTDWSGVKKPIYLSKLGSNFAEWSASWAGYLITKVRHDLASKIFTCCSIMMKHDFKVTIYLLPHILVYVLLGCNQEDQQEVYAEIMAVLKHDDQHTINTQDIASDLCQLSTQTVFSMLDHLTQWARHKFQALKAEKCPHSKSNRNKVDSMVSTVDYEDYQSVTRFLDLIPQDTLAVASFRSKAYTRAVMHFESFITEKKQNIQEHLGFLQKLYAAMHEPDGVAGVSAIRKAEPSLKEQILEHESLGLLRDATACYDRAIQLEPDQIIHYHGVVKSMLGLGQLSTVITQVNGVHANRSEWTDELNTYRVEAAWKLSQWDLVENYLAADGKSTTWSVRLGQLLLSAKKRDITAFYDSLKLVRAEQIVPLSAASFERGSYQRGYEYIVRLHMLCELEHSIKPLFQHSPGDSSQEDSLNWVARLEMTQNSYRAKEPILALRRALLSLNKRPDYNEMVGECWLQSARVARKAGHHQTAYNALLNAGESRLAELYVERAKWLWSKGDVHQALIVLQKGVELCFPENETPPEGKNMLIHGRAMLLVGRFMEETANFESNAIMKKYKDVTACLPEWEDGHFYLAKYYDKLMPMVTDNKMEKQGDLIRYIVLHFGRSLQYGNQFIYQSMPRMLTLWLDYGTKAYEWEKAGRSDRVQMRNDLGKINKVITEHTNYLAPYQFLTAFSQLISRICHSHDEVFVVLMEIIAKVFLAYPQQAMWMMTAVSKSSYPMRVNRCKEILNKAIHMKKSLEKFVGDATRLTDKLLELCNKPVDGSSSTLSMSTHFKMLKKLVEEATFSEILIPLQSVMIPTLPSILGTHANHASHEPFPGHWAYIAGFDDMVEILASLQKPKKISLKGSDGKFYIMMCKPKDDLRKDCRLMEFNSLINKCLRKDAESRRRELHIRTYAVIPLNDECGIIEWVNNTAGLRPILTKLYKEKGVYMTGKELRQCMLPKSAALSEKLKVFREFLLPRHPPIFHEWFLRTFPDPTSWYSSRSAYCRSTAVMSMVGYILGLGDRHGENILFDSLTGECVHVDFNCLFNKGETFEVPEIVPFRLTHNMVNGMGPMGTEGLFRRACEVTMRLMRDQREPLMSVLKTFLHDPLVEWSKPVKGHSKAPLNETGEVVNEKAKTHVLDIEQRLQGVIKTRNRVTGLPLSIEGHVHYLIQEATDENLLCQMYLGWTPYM
The experiment is described as follows: ATR Inhibition Assay (radioactive-phosphate incorporation). The format is biochemical. Particulars: Ki(app); 5 nM full-length ATR, 10 μM ATP, 800 μM target peptide, 25° C. The gist of the method:
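After a 10-min pre-incubation of compound with 5 nM enzyme at 25 °C, ATP was added to start the reaction (final 10 μM [γ-33P]ATP, 800 μM peptide; Tris/HCl pH 7.5, MgCl2, DTT), which ran 24 h. Incorporated 33P was captured on phosphocellulose filters, and Ki(app) was fitted by non-linear regression.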
As for `CCC(CC)C(=O)N[C@H]1CCN(c2cnc(N)c(-c3nc4ccccc4[nH]3)n2)C1` [Compound I-211, (S)-N-(1-(5-amino-6-(1H-benzo[d]imidazol-2-yl)pyrazin-2-yl)pyrrolidin-3-yl)-2-ethylbutanamide], the Ki is 1000 to 10000 nM. With `Nc1ncc(N2CCN(C(=O)N3CCCCC3)CC2)nc1-c1nc2ccccc2[nH]1` [Compound I-270, (4-(5-amino-6-(1H-benzo[d]imidazol-2-yl)pyrazin-2-yl)piperazin-1-yl)(piperidin-1-yl)methanone] the figure was 1000 to 10000 nM; with `Nc1ncc(C2=CCN(C(=O)CCC(=O)O)CC2)nc1-c1nc2ccccc2[nH]1` [Compound I-324, 4-(4-(5-Amino-6-(1H-benzo[d]imidazol-2-yl)pyrazin-2-yl)-5,6-dihydropyridin-1(2H)-yl)-4-oxobutanoic acid], 100 to 1000 nM. In the case of `Nc1ncc(N2CCN(C(=O)OCc3ccccc3)CC2)nc1-c1nnc(-c2ccccc2)o1` [Compound I-255, benzyl 4-(5-amino-6-(5-phenyl-1,3,4-oxadiazol-2-yl)pyrazin-2-yl)piperazine-1-carboxylate] it was 1000 to 10000 nM. With `Nc1ncc(C2=CCN(C(=O)c3c(F)cccc3F)CC2)nc1-c1nc2ccccc2[nH]1` [Compound I-215, (4-(5-amino-6-(1H-benzo[d]imidazol-2-yl)pyrazin-2-yl)-5,6-dihydropyridin-1(2H)-yl)(2,6-difluorophenyl)methanone] the figure was under 100 nM. Consider `Nc1ncc(C2=CCN(S(=O)(=O)c3cccs3)CC2)nc1-c1nc2ccccc2[nH]1` [Compound I-79, 3-(1H-benzo[d]imidazol-2-yl)-5-(1-(thiophen-2-ylsulfonyl)-1,2,3,6-tetrahydropyridin-4-yl)pyrazin-2-amine], for which the Ki is under 100 nM.

As to `CC(=O)N1CCN(c2cnc(N)c(-c3nnc(-c4ccccc4)o3)n2)CC1` [Compound I-180, 1-(4-(5-amino-6-(5-phenyl-1,3,4-oxadiazol-2-yl)pyrazin-2-yl)piperazin-1-yl)ethanone], the Ki fell in the range of 100 to 1000 nM. With `CCS(=O)(=O)N1CC=C(c2cnc(N)c(C(=O)Nc3cc(C)ccn3)n2)CC1` [Compound I-167, 3-amino-6-(1-(ethylsulfonyl)-1,2,3,6-tetrahydropyridin-4-yl)-N-(4-methylpyridin-2-yl)pyrazine-2-carboxamide] the figure was under 100 nM; with `CNCc1ccc(-c2nnc(-c3nc(N4C[C@@H]5C(C(=O)N(C)C)[C@@H]5C4)cnc3N)o2)cc1` (stereo partly drawn) [Compound I-351, (1R,5S)-3-[5-Amino-6-[5-[4-(methylaminomethyl)phenyl]-1,3,4-oxadiazol-2-yl]pyrazin-2-yl]-N,N-dimethyl-3-azabicyclo[3.1.0]hexane-6-carboxamide], 100 to 1000 nM. In the case of `Nc1ncc(N2CCN(S(=O)(=O)c3cccs3)CC2)nc1C(=O)Nc1ccccn1` [Compound I-116, 3-amino-N-(pyridin-2-yl)-6-(4-(thiophen-2-ylsulfonyl)piperazin-1-yl)pyrazine-2-carboxamide] it was 100 to 1000 nM; in that of `CC(C)C(=O)N1CC=C(c2cnc(N)c(-c3nc4ccccc4[nH]3)n2)CC1` [Compound I-293, 1-[4-[5-amino-6-(1H-benzimidazol-2-yl)pyrazin-2-yl]-3,6-dihydro-2H-pyridin-1-yl]-2-methyl-propan-1-one], 100 to 1000 nM; in that of `Nc1ncc(C2=CCN(C(=O)C3CCOCC3)CC2)nc1-c1nc2ccccc2[nH]1` [Compound I-235, (4-(5-amino-6-(1H-benzo[d]imidazol-2-yl)pyrazin-2-yl)-5,6-dihydropyridin-1(2H)-yl)(tetrahydro-2H-pyran-4-yl)methanone], 100 to 1000 nM.

In the case of `CNC(=O)C1CCN(c2cnc(N)c(-c3nc4ccc(C)cc4[nH]3)n2)CC1` [Compound I-13, 1-(5-amino-6-(6-methyl-1H-benzo[d]imidazol-2-yl)pyrazin-2-yl)-N-methylpiperidine-4-carboxamide], the Ki fell in the range of 1000 to 10000 nM. With `COC(=O)N1CCN(c2cnc(N)c(-c3nnc(-c4ccccc4)o3)n2)CC1` [Compound I-225, methyl 4-(5-amino-6-(5-phenyl-1,3,4-oxadiazol-2-yl)pyrazin-2-yl)piperazine-1-carboxylate] the figure was 100 to 1000 nM.

Consider `COCC(=O)N1CCN(c2cnc(N)c(-c3nc4ccccc4[nH]3)n2)CC1` [Compound I-265, 1-(4-(5-amino-6-(1H-benzo[d]imidazol-2-yl)pyrazin-2-yl)piperazin-1-yl)-2-methoxyethanone], for which the Ki is 1000 to 10000 nM. Take `CCS(=O)(=O)N1CCN(c2cnc(N)c(-c3nnc(-c4ccco4)o3)n2)CC1` [Compound I-297, 5-(4-ethylsulfonylpiperazin-1-yl)-3-[5-(2-furyl)-1,3,4-oxadiazol-2-yl]pyrazin-2-amine]: the Ki was 100 to 1000 nM. `CCS(=O)(=O)N1CC=C(c2cnc(N)c(-c3nc4ccc(C)c(C)c4[nH]3)n2)CC1` [Compound I-152, 3-(6,7-dimethyl-1H-benzo[d]imidazol-2-yl)-5-(1-(ethylsulfonyl)-1,2,3,6-tetrahydropyridin-4-yl)pyrazin-2-amine]: the Ki fell in the range of 100 to 1000 nM. For `Nc1ncc(C2=CCN(C(=O)C3CCCC3)CC2)nc1-c1nnc(-c2ccccc2)o1` [Compound I-127, (4-(5-amino-6-(5-phenyl-1,3,4-oxadiazol-2-yl)pyrazin-2-yl)-5,6-dihydropyridin-1(2H)-yl)(cyclopentyl)methanone], the Ki was under 100 nM. In the case of `CN1CCC(C(=O)N2CC=C(c3cnc(N)c(-c4nc5ccccc5[nH]4)n3)CC2)CC1` [Compound I-78, (4-(5-amino-6-(1H-benzo[d]imidazol-2-yl)pyrazin-2-yl)-5,6-dihydropyridin-1(2H)-yl)(1-methylpiperidin-4-yl)methanone] it was 100 to 1000 nM. In the case of `CNCc1ccc(-c2nnc(-c3nc(N4CCC[C@@H]4CO)cnc3N)o2)cc1` [Compound I-356, [(2R)-1-[5-Amino-6-[5-[4-(methylaminomethyl)phenyl]-1,3,4-oxadiazol-2-yl]pyrazin-2-yl]pyrrolidin-2-yl]methanol] it was 100 to 1000 nM. With `Nc1ncc(C2=CCN(C(=O)OCc3ccccc3)CC2)nc1-c1nc2ccccc2[nH]1` [Compound I-261, benzyl 4-(5-amino-6-(1H-benzo[d]imidazol-2-yl)pyrazin-2-yl)-5,6-dihydropyridine-1(2H)-carboxylate] the figure was 100 to 1000 nM; with `CCC(=O)N1CC=C(c2cnc(N)c(-c3nnc(-c4ccc(CNC)cc4)o3)n2)CC1` [Compound I-335, 1-[4-[5-Amino-6-[5-[4-(methylaminomethyl)phenyl]-1,3,4-oxadiazol-2-yl]pyrazin-2-yl]-3,6-dihydro-2H-pyridin-1-yl]propan-1-one], 100 to 1000 nM; with `COC(=O)N1CC=C(c2cnc(N)c(-c3nc4ccccc4[nH]3)n2)CC1` [Compound I-244, methyl 4-(5-amino-6-(1H-benzo[d]imidazol-2-yl)pyrazin-2-yl)-5,6-dihydropyridine-1(2H)-carboxylate], 100 to 1000 nM. As to `Nc1ncc(N2CCN(S(=O)(=O)C3CCCC3)CC2)nc1-c1nnc(-c2ccccc2)o1` [Compound I-92, 5-(4-(cyclopentylsulfonyl)piperazin-1-yl)-3-(5-phenyl-1,3,4-oxadiazol-2-yl)pyrazin-2-amine], the Ki is 100 to 1000 nM. With `CS(=O)(=O)N1CCN(c2cnc(N)c(C(=O)Nc3ccccn3)n2)CC1` [Compound I-219, 3-amino-6-(4-(methylsulfonyl)piperazin-1-yl)-N-(pyridin-2-yl)pyrazine-2-carboxamide] the figure was 100 to 1000 nM.
